Results reported in PubChem BioAssay (NCI).
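Five concentrations, 48 hours, 96-well plates. The concentration for 50% growth inhibition is given as GI50. At the TGI there is no net growth.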

What was measured:
Assay in all cases: inhibition of tumour cell growth, NCI panel, 48 h
BT-549 breast = test system: BT-549 breast
DU-145 prostate = test system: DU-145 prostate
HOP-92 NSCLC = test system: HOP-92 NSCLC
HS 578T breast = test system: HS 578T breast
SF-268 CNS = test system: SF-268 CNS
SR leukemia = test system: SR leukemia
U251 CNS = test system: U251 CNS
UACC-62 melanoma = test system: UACC-62 melanoma
LXFL 529 NSCLC = test system: LXFL 529 NSCLC
DMS 273 small cell lung = test system: DMS 273 small cell lung

Compound	GI50 (BT-549 breast) [µM]	TGI (BT-549 breast) [µM]	GI50 (DU-145 prostate) [µM]	TGI (DU-145 prostate) [µM]	GI50 (HOP-92 NSCLC) [µM]	TGI (HOP-92 NSCLC) [µM]	GI50 (HS 578T breast) [µM]	TGI (HS 578T breast) [µM]	GI50 (SF-268 CNS) [µM]	TGI (SF-268 CNS) [µM]	GI50 (SR leukemia) [µM]	TGI (SR leukemia) [µM]	GI50 (U251 CNS) [µM]	TGI (U251 CNS) [µM]	GI50 (UACC-62 melanoma) [µM]	TGI (UACC-62 melanoma) [µM]	TGI (LXFL 529 NSCLC) [µM]	TGI (DMS 273 small cell lung) [µM]
CCOC(=O)c1cc(-c2ccc(OC)c(OC)c2)[nH]c1N/N=C/c1c(Cl)cccc1Cl	2.49	12.5	2.38	8.5	4.58	26.8	2.71	18.8	2.29	39.9	0.41	1.93	2.15	18.2	0.704	6.64	–	–
Cc1ccc(NC(=O)CC/C(CC(=O)C(C)(C)C)=N\Nc2ccc([N+](=O)[O-])cc2[N+](=O)[O-])cc1C	–	–	–	–	–	> 100	–	–	–	> 100	–	> 100	–	> 100	–	> 100	> 100	–
COc1cc(CC(C(=O)O)C(=O)O)c(OC)cc1CC(C(=O)O)C(=O)O	–	–	–	–	–	> 100	–	–	–	> 100	–	> 100	–	> 100	–	> 100	> 100	> 100
COc1cc2c(cc1OC)c1c(OC)c(OC)cc3c1c1c2sc(=S)n1CC3	–	–	–	–	–	> 100	–	–	–	> 100	–	–	–	> 100	–	59.1	> 100	> 100
CC(CCCC1SCC2NC(=O)NC21)C(=O)O (configuration not stated)	–	> 100	–	> 100	–	> 100	–	> 100	–	> 100	–	> 100	–	> 100	–	> 100	–	–
CC(=O)NC(CCCCN(Cc1ccccc1)C(=O)N(CCCl)N=O)C(=O)NCc1ccccc1 (configuration not stated)	–	65.8	–	> 51.9	–	68.6	–	49.7	–	40.8	–	47.6	–	39.7	–	36.5	> 100	> 100
N#Cc1c(N)nc(N2CCSCC2)c(C#N)c1-c1ccc(O)cc1	23.3	98	27.1	> 100	10.1	47.5	25.1	> 100	18.2	56.5	11.2	38.1	15	28.3	13	26.2	–	–
CC1=NN(C(=O)c2ccc(Cl)cc2)C(=O)/C1=C/c1ccco1	–	–	–	–	–	> 100	–	–	–	> 100	–	–	–	> 100	–	> 100	> 100	–
CC1=C2[C@H](c3ccccc3)C3C=CC2(c2ccccc23)N(C(=O)C(c2ccccc2)c2ccccc2)C1=O (some centres not stated)	–	–	–	–	–	> 100	–	–	–	> 100	–	> 100	–	> 100	–	> 100	> 100	> 100
COC(=O)C(C(=O)C(=O)Nc1ccc(OC)cc1[N+](=O)[O-])c1nc2cc(C)c(C)cc2[nH]c1=O (configuration not stated)	–	–	–	–	–	> 100	–	–	–	> 100	–	> 100	–	> 100	–	> 100	> 100	–
C=C1C(=O)OC2CC3(C)CCCC(C)C3=CC12 (configuration not stated)	–	18.5	–	14.7	–	10.3	–	36.6	–	23.1	–	7.04	–	22.2	–	16.2	–	–
COc1cc(/C=C\c2ccc(OC(C)=O)cc2)cc(OC)c1OC	–	–	–	–	–	> 100	–	–	–	> 100	–	> 100	–	> 100	–	> 100	> 100	> 100
Nc1ccc2c(c1)Oc1c(F)c(F)cc3c(=O)c(C(=O)O)cn-2c13	–	–	–	–	–	96.9	–	–	–	–	–	> 100	–	> 100	–	> 100	> 100	–
COc1cc(-c2ccc(NC(=O)NC3CC3)c(OC)c2)ccc1NC(=O)NC1CC1	2.67	27.2	6.89	> 100	7.66	> 67.7	–	> 28.6	8.21	> 100	0.446	–	3.11	> 69.3	5.71	> 100	–	–
CC(=O)O/N=C(Cl)/C(Cl)=N/OC(C)=O	–	–	–	–	–	> 100	–	–	–	> 100	–	> 100	–	> 100	–	> 100	> 100	> 100
Cc1nc(Nc2ccccc2)sc1C(=O)CC(=O)C(=O)NC12CC3CC(CC(C3)C1)C2	–	–	–	–	–	89.4	–	–	–	> 100	–	–	–	> 100	–	> 100	> 100	> 100
O=C1C(=O)N(c2cccc(C(F)(F)F)c2)C(=O)C(=O)C1c1nc2ccccc2s1	–	> 100	–	> 100	–	> 100	–	> 100	–	> 100	–	83.6	–	> 100	–	> 100	> 100	> 100
CCN(CC)CC(C)(C)C(=O)/C=C/c1ccc(/C=C/C(=O)C(C)(C)CN(CC)CC)cc1	–	–	–	5.29	–	1.46	–	4.45	–	2.11	–	0.758	–	1.57	–	4.89	0.417	–
COc1ccc(/C=c2/sc3n(c2=O)NC(c2ccc(Cl)cc2)NN=3)cc1 (configuration not stated)	–	–	–	–	–	> 100	–	–	–	> 100	–	> 100	–	> 100	–	> 100	> 100	> 100
CCCCCCN(C)Cc1ccc(OCCOc2ccc(CN(C)CCCCCC)cc2)cc1	1.47	3.01	2.57	10.5	0.407	2.05	1.47	3.97	2.59	11.8	1.04	11.6	1.08	2.37	1.6	3.4	–	–
CCOC(=O)NC(=O)c1cn(CCN2CCNCC2)c(=O)[nH]c1=O	–	–	–	–	–	> 100	–	–	–	> 100	–	> 100	–	> 100	–	> 100	> 100	–
Cc1c(C2Cc3ccccc3N2)c2ccccc2n1C (configuration not stated)	–	–	–	–	–	–	–	–	–	> 100	–	> 100	–	> 100	–	> 100	> 100	> 100
